Test results published in patent US11091591B2, “Carbohydrate ligands that bind to antibodies against glycoepitopes of glycosphingolipids” (UNIVERSITÄT BASEL, priority 2015, dated 2021).
“Also recorded” adds a separate entry of the source. Each block holds one substance with its values, some of them ahead of it.

Legend:
[1] = target: anti-GD1b IgG antibodies of neuropathy patient serum; experiment: Competitive binding ELISA (GanglioCombi), GD1b-coated wells, patient serum IgG; set-up: species or system human; details: serum P22 (IgG), dilution 1:50; table prints GD1a (IgG)
Procedure: (§1) The synthesized carbohydrate polymers 6 (GM1a epitope), 26 (GD1b epitope), and 34 (GT1a epitope) were tested in the GanglioCombi(-Light) ELISA and/or, in case of compound 6, the anti-GM1 ELISA (all kits from Bühlmann Laboratories, Schönenbuch, Switzerland). The 96 well microtiter plates coated with purified gangliosides from bovine cauda equina were washed two times with washing buffer (300 μl/well) before adding the carbohydrate polymers in eight different concentrations, 25 μl/well. The patient sera containing anti-ganglioside IgG or IgM antibodies were added in the appropriate dilutions, 25 μl/well (2× concentrated), to obtain a total of 50 μl volume per well. […] Finally, a stop solution (0.25 M sulfuric acid) was added (100 μl/well) and the degree of colorimetric reaction was determined by absorption measurement at 450 nm with a microplate reader (Spectramax 190, Molecular Devices, California, USA).
(§2) As indicated, the synthesized carbohydrate polymers 6 (GM1a epitope), 26 (GD1b epitope), and 34 (GT1a epitope) were tested in the GanglioCombi(-Light) ELISA and/or, in case of compound 6, the anti-GM1 ELISA (all kits from Bühlmann Laboratories, Schönenbuch, Switzerland). […] After a washing step ganglioside-bound antibodies (IgM/IgG) were detected with horseradish peroxidase labeled anti-human IgM or anti-human IgG antibodies, followed by a colorimetric reaction. […]

[2] = tested on: anti-GM1a IgG antibodies of neuropathy patient sera; experiment: Competitive binding ELISA (GanglioCombi/anti-GM1), GM1a-coated wells, patient sera IgG; set-up: species or system human
Procedure: as §1, §2

[3] = tested on: anti-GM1a IgM antibodies of neuropathy patient sera; experiment: Competitive binding ELISA (GanglioCombi/anti-GM1), GM1a-coated wells, patient sera IgM; set-up: species or system human
Procedure: as §1, §2

[4] = tested on: anti-GQ1b IgG antibodies of neuropathy patient sera; experiment: Competitive binding ELISA (GanglioCombi), GQ1b-coated wells, patient sera IgG; set-up: species or system human
Procedure: The synthesized carbohydrate polymers 6 (GM1a epitope), 26 (GD1b epitope), and 34 (GT1a epitope) were tested in the GanglioCombi(-Light) ELISA and/or, in case of compound 6, the anti-GM1 ELISA (all kits from Bühlmann Laboratories, Schönenbuch, Switzerland). The 96 well microtiter plates coated with purified gangliosides from bovine cauda equina were washed two times with washing buffer (300 μl/well) before adding the carbohydrate polymers in eight different concentrations, 25 μl/well. The patient sera containing anti-ganglioside IgG or IgM antibodies were added in the appropriate dilutions, 25 μl/well (2× concentrated), to obtain a total of 50 μl volume per well. The plate was covered with a plate sealer and incubated for 2 h at 4-8° C. The wells were washed three times with wash buffer (300 μl/well) before either the anti-human IgM antibody-horseradish peroxidase conjugate or the anti-human IgG antibody-horseradish peroxidase conjugate was added (100 μl/well). The plate was incubated for 2 h at 4-8° C. […] Finally, a stop solution (0.25 M sulfuric acid) was added (100 μl/well) and the degree of colorimetric reaction was determined by absorption measurement at 450 nm with a microplate reader (Spectramax 190, Molecular Devices, California, USA).
As indicated, the synthesized carbohydrate polymers 6 (GM1a epitope), 26 (GD1b epitope), and 34 (GT1a epitope) were tested in the GanglioCombi(-Light) ELISA and/or, in case of compound 6, the anti-GM1 ELISA (all kits from Bühlmann Laboratories, Schönenbuch, Switzerland). […] After a washing step ganglioside-bound antibodies (IgM/IgG) were detected with horseradish peroxidase labeled anti-human IgM or anti-human IgG antibodies, followed by a colorimetric reaction. Successful competition of the compounds with gangliosides led to a decrease in measured OD450 nm, (optical density), because they block the binding sites of anti-ganglioside antibodies, preventing their binding to immobilized gangliosides. […] IgG and IgM antibody titers were determined for each serum in preliminary experiments. […]

[5] = tested on: mouse monoclonal anti-HNK-1 (anti-MAG) IgM antibody; experiment: Competitive binding anti-MAG ELISA, MAG-coated wells
Procedure: (§3) The synthesized carbohydrate polymer 86 (HNK-1 epitope mimetic 58) was tested in the anti-MAG ELISA (kit from Bühlmann Laboratories, Schönenbuch, Switzerland). The assay protocol was performed according to the one described above for the GanglioCombi(-Light) ELISA. To determine the in vitro IC50 of polymer 86, the assay was performed with co-incubation of polymer (25 μl/well) and a mouse monoclonal anti-HNK-1 (anti-MAG) IgM antibody (25 μl/well) at a final dilution of 1:1000. To determine the in vivo efficacy of polymer 86, the assay was performed by incubation of mouse plasma diluted 1:100 (50 μl/well). Both, the mouse monoclonal anti-HNK-1 (anti-MAG) IgM and anti-HNK-1 (anti-MAG) IgM in plasma of immunized BALB/c mice (pre- and post-treatment) were detected with goat anti-mouse IgM HRP conjugate (Sigma Aldrich, A8786) diluted 1:10′000.

[6] = tested on: anti-HNK-1 (anti-MAG) IgM antibodies; experiment: Immunological mouse model for anti-MAG neuropathy; assay type: in vivo; details: immunized BALB/c mice, 10 mg/kg intravenous, up to 168 h (seven days) after administration
Procedure: as §3
Six gender matched BALB/c wild type mice at the age of 6 weeks were injected subcutaneously at multiple sites on the lower back with a total of 100 μg of the glycosphingolipids SGPG and SGLPG purified from bovine cauda equina (both glycolipids contain the HNK-1 carbohydrate epitope). The isolation of glycolipids was performed according to a protocol described by Burger et al. (Journal of Immunological Methods 1991, 140, 31-36). […] Mouse plasma samples were analyzed by the above described anti-MAG ELISA.

IC50 [1]: 313 µM
Substance: GD1b Polymer [Compound 26]

IC50 ([2]; serum P21, GM1a (IgG), dilution 1:1'300): 0.219 µM
IC50 ([2]; serum PP IgG Pos., GM1a (IgG), dilution 1:1'200): 28 µM
IC50 ([3]; serum P3, GM1a (IgM), dilution 1:50): 375 nM
IC50 ([3]; serum P4, GM1a (IgM), dilution 1:400): 0.0594 nM
Substance: GM1a Polymer [Compound 6]

IC50 ([4]; serum EK-GCO 1803, GQ1b/GT1a (IgG), dilution 1:300): 12.5 µM
IC50 ([4]; serum P23, GQ1b/GT1a (IgG), dilution 1:50): 348 µM
Substance: GT1a Polymer [Polymer 34]
neutralization of patient sera directed against GQ1b ([4]; sera EK-GCO 1803 (IgG) and P23 (IgG)): neutralized

inhibition of binding of mouse monoclonal anti-HNK-1 IgM to the HNK-1 epitope on MAG [5]: nanomolar concentrations
IC50 ([5]; mouse anti-HNK-1 antibody, HNK-1 (IgM), final dilution 1:1000): 0.0513 ± 0.0442 µM
Substance: HNK-1 Polymer [Compound 86]
reduction of anti-HNK-1 (anti-MAG) IgM antibody levels [6]: significantly reduced; also recorded: significant reduction
